The numbers were not newly measured in patent US20110142971A1, “USE OF AN ONION EXTRACT FOR MAKING A COMPOSITION TO CONTROL WEIGHT GAIN” (priority 2005, published 2011), which cites them from elsewhere.

Structures are written as SMILES.

The conditions of series [1]: in vivo.
The target of a further series is T1, pancreatic lipase (Homo sapiens, UniProt P16233).
T1 construct: host or cells: human subjects (in vivo, digestive tract)
T1 sequence (P16233 17-465): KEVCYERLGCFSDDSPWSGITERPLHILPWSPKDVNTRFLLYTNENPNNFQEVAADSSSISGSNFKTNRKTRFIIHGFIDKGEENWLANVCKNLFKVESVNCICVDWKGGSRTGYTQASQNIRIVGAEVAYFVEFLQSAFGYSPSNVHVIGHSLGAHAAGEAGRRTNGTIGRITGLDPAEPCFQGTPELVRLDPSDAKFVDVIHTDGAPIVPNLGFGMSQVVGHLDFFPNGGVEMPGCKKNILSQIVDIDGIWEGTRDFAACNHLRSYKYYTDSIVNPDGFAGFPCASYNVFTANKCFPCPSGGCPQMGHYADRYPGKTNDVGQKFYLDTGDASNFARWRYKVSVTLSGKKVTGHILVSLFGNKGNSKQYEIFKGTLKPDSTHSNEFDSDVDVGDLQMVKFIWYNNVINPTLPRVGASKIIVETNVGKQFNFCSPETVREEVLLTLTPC
Particulars: human species.

As to `CCCCCCCCCCC[C@@H](C[C@@H]1OC(=O)[C@H]1CCCCCC)OC(=O)[C@H](CC(C)C)NC=O` [tetrahydrolipstatin, [2S-[2-α(R),3β]]-N-formyl-L-leucine 1-[(3-hexyl-4-oxo-2-oxetanyl)methyl]dodecyl ester], in series [1], the Side effects result was “steatorrhoea, anal exudation, abdominal pains, nausea and vomiting, or fat-soluble vitamin absorption reduction”. Besides, the “Average reduction of the lipids contained in food” value on pancreatic lipase is given as “about one third”.
